Patent US6277862A, “Quinoline derivatives” (SmithKline Beecham S.p.A., priority 1995, dated 2001)
Counter-ions that a name gives are not always drawn.

Legend:
[1] = molecular target: T1, human neurokinin-3 receptors expressed in CHO cell lines (Homo sapiens, UniProt P29371); assay: biochemical; conditions: human NK-3 receptors in CHO cell lines; radioligand [125I]-[Me-Phe7]-NKB; mean of 2-5 separate experiments in duplicate or triplicate; read-out: Binding affinity in hNK-3-CHO IC50
T1 sequence (P29371 1-465): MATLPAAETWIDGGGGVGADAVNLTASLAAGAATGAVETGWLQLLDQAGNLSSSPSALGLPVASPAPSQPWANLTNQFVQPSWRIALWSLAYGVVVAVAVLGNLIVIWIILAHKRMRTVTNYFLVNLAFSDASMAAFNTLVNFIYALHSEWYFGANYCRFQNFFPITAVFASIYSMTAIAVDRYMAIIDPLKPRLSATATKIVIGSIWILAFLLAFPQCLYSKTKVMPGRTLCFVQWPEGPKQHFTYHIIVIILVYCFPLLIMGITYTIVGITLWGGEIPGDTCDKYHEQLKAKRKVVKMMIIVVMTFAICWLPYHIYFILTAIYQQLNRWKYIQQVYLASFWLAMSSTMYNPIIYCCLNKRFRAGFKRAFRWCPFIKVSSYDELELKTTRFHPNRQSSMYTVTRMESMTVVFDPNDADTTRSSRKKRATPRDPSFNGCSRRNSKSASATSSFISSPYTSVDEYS
Description: The activity of the compounds of the present invention, as NK3 ligands, is determined by their ability to inhibit the binding of the radiolabelled NK3 ligands, [^125 I]-[Me--Phe^7 ]-NKB or [^3 H]-Senktide, to guinea-pig and human NK3 receptors (Renzetti et at, 1991, Neuropeptide, 18, 104-114; Buell et al, 1992, FEBS, 299(1), 90-95; Chung et al, 1994, Biochem. Biophys. Res. Commun., 198(3), 967-972).
The binding assays utilized allow the determination of the concentration of the individual compound required to reduce by 50% the [^125 I]-[Me--Phe^7 ]-NKB and [^3 H]-Senktide specific binding to NK3 receptor in equilibrium conditions (IC50).
The NK3 -antagonist activity of the compounds of the present invention is determined by their ability to inhibit senktide-induced contraction of the guinea-pig ileum (Maggi et al, 1990, Br. J. Pharmacol., 101, 996-1000) and rabbit isolated iris sphincter muscle (Hall et al., 1991, Eur. J. Pharmacol., 199, 9-14) and human NK3 receptors-mediated Ca^++ mobilization (Mochizuki et al, 1994, J. Biol. Chem., 269, 9651-9658). Guinea-pig and rabbit in-vitro functional assays provide for each compound tested a mean KB value of 3-8 separate experiments, where KB is the concentration of the individual compound required to produce a 2-fold rightward shift in the concentration-response curve of senktide. Human receptor functional assay allows the determination of the concentration of the individual compound required to reduce by 50% (IC50 values) the Ca^++ mobilization induced by the agonist NKB.

[2] = molecular target: T2, NK-3 receptor relative to the NK-2 receptor (Homo sapiens, UniProt P29371); assay: Selectivity for the NK-3 receptor relative to the NK-2 receptor; type: binding; conditions: in words
T2 construct: counter-target NK-2 receptor (TACR2, human P21452); assay not given
T2 sequence (P29371 1-465): T1 sequence (P29371 1-465)

NK-2 and NK-3 receptors = assay: Combined NK-2/NK-3 antagonism; conditions: in words

IC50 [1] | Structure (SMILES) | selectivity for the NK-3 receptor relative to the NK-2 receptor [2] | combined NK-2/NK-3 antagonism (NK-2 and NK-3 receptors)
0.4 nM | CC[C@H](NC(=O)c1c(OCCCNC(=O)c2cnccn2)c(-c2ccccc2)nc2ccccc12)c1ccccc1 [Example 38] | particularly selective for the NK-3 receptor relative to the NK-2 receptor | –
1.5 nM | CC[C@H](NC(=O)c1c(OCCNC(=O)c2ccccc2CC(=O)O)c(-c2ccccc2)nc2ccccc12)c1ccccc1 [Example 30, (S)-N-(a-ethylbenzyl)-3-[2-(2'-carboxymethylbenzoyl)aminoethoxy]-2-phenylquinoline-4-carboxamide] | – | –
1.3 nM | CC[C@H](NC(=O)c1c(OCCNC2Cc3ccccc3C2)c(-c2ccccc2)nc2ccccc12)c1ccccc1 [Example 8, (S)-N-(α-ethylbenzyl)-3-[2-(2-indanylamino)ethoxy]-2-phenylquinoline-4-carboxamide hydrochloride] | – | –
1.3 nM | CC[C@H](NC(=O)c1c(OCCNC(=O)Cc2ccccc2CN2CCCC2)c(-c2ccccc2)nc2ccccc12)c1ccccc1 [Example 40] | – | particularly suitable as combined NK-2/NK-3 antagonists
0.2 nM | CC[C@H](NC(=O)c1c(OCCNC(=O)c2cnccn2)c(-c2ccccc2)nc2ccccc12)c1ccccc1 [Example 36] | particularly selective for the NK-3 receptor relative to the NK-2 receptor | –
0.9 nM | CC[C@H](NC(=O)c1c(OCCNC(=O)Cc2ccncc2)c(-c2ccccc2)nc2ccccc12)c1ccccc1 [Example 26, (S)-N-(a-ethylbenzyl)-3-[2-(4-pyridylacetyl)aminoethoxy]-2-phenylquinoline-4-carboxamide] | – | –
0.8 nM | CC[C@H](NC(=O)c1c(OCCNC(=O)Cc2ccccc2C(=O)O)c(-c2ccccc2)nc2ccccc12)c1ccccc1 [Example 29, (S)-N-(a-ethylbenzyl)-3-[2-(2'-carboxyphenylacetyl)aminoethoxy]-2-phenylquinoline-4-carboxamide] | – | –
0.6 nM | CC[C@H](NC(=O)c1c(OCCNC(=O)Cc2ccccc2)c(-c2ccccc2)nc2ccccc12)c1ccccc1 [Example 22] | – | –
1.7 nM | CC[C@H](NC(=O)c1c(OCCCC(=O)O)c(-c2ccccc2)nc2ccccc12)c1ccccc1 [Example 11, (S)-N-(a-ethylbenzyl)-3-(carboxypropoxy)-2-phenylquinoline-4-carboxamide] | – | –
– | CC[C@H](NC(=O)c1c(OCCNC(=O)Cc2ccccc2CNC)c(-c2ccccc2)nc2ccccc12)c1ccccc1 [Example 39] | – | particularly suitable as combined NK-2/NK-3 antagonists
1.6 nM | CC[C@H](NC(=O)c1c(OCc2ccncc2)c(-c2ccccc2)nc2ccccc12)c1ccccc1 [Example 34] | particularly selective for the NK-3 receptor relative to the NK-2 receptor | –
2.3 nM | CC[C@H](NC(=O)c1c(OCCNC(=O)CCC(=O)O)c(-c2ccccc2)nc2ccccc12)c1ccccc1 [Example 14, (S)-N-(a-ethylbenzyl)-3-[2-(3-carboxypropanoyl)aminoethoxy]-2-phenylquinoline-4-carboxamide] | – | –
2.2 nM | CC[C@H](NC(=O)c1c(OCCNC(=O)c2ccccc2)c(-c2ccccc2)nc2ccccc12)c1ccccc1 [Example 9, (S)-N-(α-ethylbenzyl)-3-(2-benzoylaminoethoxy)-2-phenylquinoline-4-carboxamide] | – | –
0.4 nM | CC[C@H](NC(=O)c1c(OCCNC(=O)Cc2ccccc2O)c(-c2ccccc2)nc2ccccc12)c1ccccc1 [Example 42] | – | –
2.6 nM | CC[C@H](NC(=O)c1c(OCCNC(=O)CN)c(-c2ccccc2)nc2ccccc12)c1ccccc1 [Example 25, (S)-N-(a-ethylbenzyl)-3-(2-aminoacetylaminoethoxy)-2-phenylquinoline-4-carboxamide] | – | –
